Experiments:
[1] = tested on: HuM2e antibody 23K12; format: binding, human
[2] = tested on: anti-M2 human monoclonal antibody Z3G1; format: binding

Row | Substance | Signal (peptides that bind to 23K21 and 8I10) [1] | Signal (peptides that show specific binding to Z3G1) [2] | Signal (peptides that bind to Z3G1) [2]
1 | 580 (SLCTEVGCSLLTEV; epitope peptide) [compound 580] | 858 | 2382 | 
2 | 321 (ALLTEVETPIRNEWGCRCNDSSD; epitope peptide) [compound 321] | 1794 | 2225 | 
3 | 676 (SLLTEVETPIENEWGCRCNDSSD; epitope peptide) [compound 676] | 731 | 2252 | 
4 | 400 (SLLTEVETPIRNEWGCRCNVSSD; epitope peptide) [compound 400] | 865 |  | 2476
5 | 501 (SLLTEVETPIRNEWGCCCNDSSD; epitope peptide) [compound 501] | 1065 | 2515 | 
6 | 528 (MSLLTCVGCSLLTEV; epitope peptide) [compound 528] | 978 |  | 2467
7 | 707 (SLLTEVETPIANEWGCRCNDSSD; epitope peptide) [compound 707] | 708 | 2302 | 
8 | 357 (SLLTEVETPIPNEWGCRCNDSSD; epitope peptide) [compound 357] | 1548 | 2515 | 
9 | 703 (SLLTEVETPIRNWWGCRCNDSSD; epitope peptide) [compound 703] | 713 | 2293 | 
10 | 464 (SLLTEVGSLCTEV; epitope peptide) [compound 464] | 1256 | 2219 | 
11 | 683 (SLLTEVETPIRNEWGCACNDSSD; epitope peptide) [compound 683] | 729 | 2301 | 
12 | 595 (SLLTEVETPIRNEWGWRCNDSSD; epitope peptide) [compound 595] | 838 | 2439 | 
13 | 301 (SLLCEVGCSLLTEC; epitope sequence) [compound 301] | 1959 | 2637 | 
14 | 584 (SLLTEVETPIRNEWGCRRNDSSD; epitope peptide) [compound 584] | 855 | 2383 | 
15 | 701 (SLLTEVETPIRNEWGCKCNDSSD; epitope peptide) [compound 701] | 715 | 2290 | 
16 | 327 (SLMTEVETPIRNEWGCRCNDSSD; epitope peptide) [compound 327] | 1729 | 2149 | 
17 | 268 (SLLTEVETPIRNECGCRCNDSSD; epitope peptide) [compound 268] | 682 | 2554 | 
18 | 579 (SLLTEVETPIRNEWGCRWNDSSD; epitope peptide) [compound 579] | 859 |  | 2364
19 | 393 (SLLTEVETPIRNEWGCRCNLSSD; epitope peptide) [compound 393] | 1334 |  | 2634
20 | 330 (SLLTEVETPIRNEWGCRCNDYSD; epitope peptide) [compound 330] | 1694 |  | 2445
21 | 431 (SLLTEVETPIRNEWGCRCNDSTD; epitope peptide) [compound 431] | 701 |  | 2205

Row | Substance | Signal (peptides that bind to 23K21 and 8I10) [1] | Signal (peptides that show specific binding to Z3G1) [2] | Signal (peptides that bind to Z3G1) [2]
22 | 450 (SLLTEVEHPIRNEWGCRCNDSSD; epitope peptide) [compound 450] | 1331 | 2241 | 
23 | 646 (SLLTEVEGPIRNEWGCRCNDSSD; epitope peptide) [compound 646] | 763 | 2341 | 
24 | 668 (SLLTEVETPIRNEWGYRCNDSSD; epitope peptide) [compound 668] | 739 | 2410 | 
25 | 665 (SLLTEVETPFRNEWGCRCNDSSD; epitope peptide) [compound 665] | 745 | 2229 | 
26 | 582 (SLLTEVETPIRAEWGCRCNDSSD; epitope peptide) [compound 582] | 856 | 2306 | 
27 | 632 (SLLTEVETPIRNEWGCRCVDSSD; epitope peptide) [compound 632] | 775 |  | 2366
28 | 571 (SLLTEVETPIRNLWGCRCNDSSD; epitope peptide) [compound 571] | 870 | 2415 | 
29 | 618 (SLLTEVETPIRNEWGCRCLDSSD; epitope peptide) [compound 618] | 807 |  | 2480
30 | 385 (CSLLTEVGCLCTCV; epitope peptide) [compound 385] | 1375 | 2474 | 
31 | 324 (SLCTEVGSLLTEV; epitope peptide) [compound 324] | 1772 | 1780 | 
32 | 627 (SLLTEVETPIRIEWGCRCNDSSD; epitope peptide) [compound 627] | 789 | 2444 | 
33 | 525 (SLLTEVGCSCLCEV; epitope peptide) [compound 525] | 996 | 1829 | 
34 | 533 (CSLLTEVGSCLCEC; epitope peptide) [compound 533] | 963 | 2625 | 
35 | 720 (SLLTEVETPIINEWGCRCNDSSD; epitope peptide) [compound 720] | 699 | 2262 | 
36 | 437 (SLLTEVETPIR; epitope peptide) [compound 437] | 1012 |  | 2297
37 | 714 (SLLTEVETPIRNEWCCRCNDSSD; epitope peptide) [compound 714] | 704 | 2388 | 
38 | 555 (SLLTEVETPIRNEWGCRCWDSSD; epitope peptide) [compound 555] | 901 |  | 2462
39 | 570 (MCLLTEVGCSLLTEV; epitope peptide) [compound 570] | 875 |  | 2717
40 | 694 (SLLTEVETPIRNEWGCRCNESSD; epitope peptide) [compound 694] | 720 |  | 2282
41 | 608 (SLLTEIETPIRNEWGCRCNDSSD; epitope peptide) [compound 608] | 816 | 2016 | 
